Counter-ions that a name gives are not always drawn. Like-named read-outs stand apart in the source and are kept apart here. Blank lines part the entries; values can stand above or below the compound they belong to.
System: amyloid β production in transfected H4 (human neuroglioma) cells stably expressing APP constructs
Assay: In vitro cell-based assay of inhibitors of amyloid β production (ELISA)
How it was run: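 Transfected H4 cells stably expressing wild-type or variant APP were exposed to compounds (initial screen 10-100 μM) for about 16 h. Secreted Aβ in the medium was quantified by sandwich ELISA (C-terminal-specific monoclonal capture, N-terminal-specific polyclonal detection) against an Aβ standard curve; dose-response runs followed for actives.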

[1] = transfected H4 cells stably expressing APP, approx. 16 h incubation, amyloid β in medium by ELISA, read-out: ACTIVITY (IC50, inhibition of amyloid β production)
[2] = Homo sapiens, 16 h, transfected H4 cells expressing APP, approximately 16 hours incubation, amyloid β in medium by ELISA, read-out: ACTIVITY (IC50, inhibition of amyloid β production)
[3] = transfected H4 cells stably expressing APP, approximately 16 hours incubation, amyloid β in medium by ELISA, read-out: ACTIVITY (IC50, inhibition of amyloid β production)
[4] = Homo sapiens, 16 h, transfected H4 cells stably expressing APP, approximately 16 hours incubation, amyloid β in medium by ELISA, read-out: ACTIVITY (IC50, inhibition of amyloid β production)
[5] = transfected H4 cells stably expressing APP constructs, approximately 16 hours incubation, amyloid β in medium by ELISA, read-out: ACTIVITY (IC50, inhibition of amyloid β production)

IC50 [1]: 100 to 500 nM
Compound: N-{2-[2-(1-{[(4-chlorophenyl)sulfonyl]-2,5-difluoroanilino}ethyl)phenoxy]ethyl}-N-ethyl-2-(2-thienyl)acetamide [Example 705]

IC50 [2]: > 500 nM
Compound: C[C@H](C(=O)NC1CCCc2ccccc21)N(c1cc(Cl)ccc1F)S(=O)(=O)c1ccc(Cl)cc1 (stereo partly drawn) [Example 1309]

IC50 [1]: 100 to 500 nM
Compound: CC(c1ccccc1OCCCNC(=O)c1cccc(F)c1)N(c1cc(F)ccc1F)S(=O)(=O)c1ccc(Cl)cc1 (stereo not drawn) [Example 761]

IC50 [3]: 100 to 500 nM
Compound: 2-((1R)-1-{[(4-chlorophenyl)sulfonyl]-2,5-difluoroanilino}ethyl)benzyl benzylcarbamate [Example 825]

IC50 [4]: > 500 nM
Compound: O=C(c1ccc(F)cc1)N1CCCCC1CCOc1ccccc1CN(c1cc(F)ccc1F)S(=O)(=O)c1ccc(Cl)cc1 (stereo not drawn) [Example 946, 4-chloro-N-(2,5-difluorophenyl)-N-(2-{2-[1-(4-fluorobenzoyl)-2-piperidinyl]ethoxy}benzyl)benzenesulfonamide]

Compound: O=S(=O)(c1ccc(Cl)cc1)N(Cc1ncccc1OCCCN1CCCCC1)c1cc(F)ccc1F [Example 233, 4-Chloro-N-(2,5-difluorophenyl)-N-({3-[3-(1-piperidinyl)propoxy]-2-pyridinyl}methyl)benzenesulfonamide Hydrochloride]
IC50 (read-out: ACTIVITY (inhibitory concentration IC50, inhibition of amyloid β production)): 25 to 50 nM

Compound: COc1cccc(OC)c1CNC(=O)[C@@H](C)N(c1cc(Cl)ccc1F)S(=O)(=O)c1ccc(Cl)cc1 [Example 1364]
IC50 (transfected H4 cells expressing APP, approximately 16 hours incubation, amyloid β in medium by ELISA, read-out: ACTIVITY (IC50, inhibition of amyloid β production)): > 500 nM

Compound: CC(CC[C@@H](C)N(c1cc(Cl)ccc1Cl)S(=O)(=O)c1ccc(Cl)cc1)N1CCCC(S(C)(=O)=O)C1 (stereo partly drawn) [Example 1140]
IC50 [5]: 100 to 500 nM

IC50 [1]: 100 to 500 nM
Compound: (2Z)-N-{3-[2-(1-{[(4-chlorophenyl)sulfonyl]-2,5-difluoroanilino}ethyl)phenoxy]propyl}-N-methyl-3-phenyl-2-propenamide [Example 738]

IC50 [4]: > 500 nM
Compound: C#Cc1ccccc1CN(c1ccccc1)S(=O)(=O)c1ccc(Cl)cc1 [Example 991, 4-chloro-N-(2-ethynylbenzyl)-N-phenylbenzenesulfonamide]

IC50 [2]: > 500 nM
Compound: C[C@H](C(=O)NC1CCC(C(C)(C)C)CC1)N(c1cc(Cl)ccc1F)S(=O)(=O)c1ccc(Cl)cc1 (stereo partly drawn) [Example 1316]

Compound: CC(C)Oc1c(NCC[C@@H](C)N(c2cc(F)ccc2F)S(=O)(=O)c2ccc(Cl)cc2)c(=O)c1=O [Example 1125, 4-chloro-N-(2,5-difluorophenyl)-N-[3-(2-isopropoxy-3,4-dioxo-1-cyclobutenyl)amine-1(R)-methylpropyl]benzenesulfonamide]
IC50 [5]: 50 to 100 nM

IC50 [3]: 100 to 500 nM
Compound: CCCCC(CC)C(=O)N(C)CCCOc1ccccc1CN(c1cc(F)ccc1F)S(=O)(=O)c1ccc(Cl)cc1 (stereo not drawn) [Example 837, N-{3-[2-({[(4-chlorophenyl)sulfonyl]-2,5-difluoroanilino}methyl)phenoxy]propyl}-2-ethyl N-methylhexanamide]

Compound: C[C@H](c1ccc(F)cc1COC(=O)NCc1ccco1)N(c1cc(F)ccc1F)S(=O)(=O)c1ccc(Cl)cc1 [Example 691, 2-((1R)-1-{[(4-chlorophenyl)sulfonyl]-2,5-difluoroanilino}ethyl)-5-fluorobenzyl 2-furylmethylcarbamate]
IC50 [1]: 100 to 500 nM

IC50 [3]: > 500 nM
Compound: 4-chloro-N-{3-[2-({[(4-chlorophenyl)sulfonyl]-2,5-difluoroanilino}methyl)phenoxy]propyl}-N-methylbenzamide [Example 970]

IC50 [3]: 100 to 500 nM
Compound: 2,4-dichloro-N-{3-[2-(1-{[(4-chlorophenyl)sulfonyl]-2,5-difluoroanilino}ethyl)phenoxy]propyl}-N-methylbenzamide [Example 839]

IC50 [2]: 100 to 500 nM
Compound: C[C@H](C(=O)NCC(C)(C)CO)N(c1cc(Cl)ccc1F)S(=O)(=O)c1ccc(Cl)cc1 [Example 1328]

IC50 [4]: > 500 nM
Compound: COc1cccc(C(=O)N2CCCCC2CCOc2ccccc2CN(c2cc(F)ccc2F)S(=O)(=O)c2ccc(Cl)cc2)c1 (stereo not drawn) [Example 909, 4-chloro-N-(2,5-difluorophenyl)-N-(2-{2-[1-(3-methoxybenzoyl)-2-piperidinyl]ethoxy}benzyl)benzenesulfonamide]
